{"source": "patent US20190134039A1", "about": "“ANTIVIRAL JAK INHIBITORS USEFUL IN TREATING OR PREVENTING RETROVIRAL AND OTHER VIRAL INFECTIONS” (EMORY UNIVERSITY, priority 2011, published 2019)", "key": {"[1]": {"test_system": "PHA + IL-2 PBM cells", "assay": "cells", "conditions": "Homo sapiens, PBMC, read-out: IC50 in PHA + IL-2 PBM cells *MTT Assay"}, "[2]": {"test_system": "HIV-1 containing K65R", "assay": "microbe, parasite or virus in culture", "format": "cell-based", "conditions": "Human immunodeficiency virus 1, Lymphocyte"}, "[3]": {"test_system": "PHA stimulated PBM cells", "assay": "cells", "conditions": "Homo sapiens, PBMC, read-out: IC50 in PHA stimulated PBM cells *MTT Assay"}, "[4]": {"test_system": "HIV-1 containing M184V", "assay": "microbe, parasite or virus in culture", "format": "cell-based", "conditions": "Human immunodeficiency virus 1, Lymphocyte"}, "[5]": {"test_system": "HIV-1LAI", "assay": "microbe, parasite or virus in culture", "conditions": "Human immunodeficiency virus 1, PBMC, in Homo sapiens", "excerpt": "PBM cells were isolated as follows: Lymphocytes were isolated from buffy coats derived from healthy donors obtained from Life South Laboratories (Dunwoody, Ga.). Activated lymphocytes were maintained for 72 hrs in medium that was supplemented with […] phytohemagglutinin (PHA) (Cape Cod associates, East Falmouth, Mass.). Media was comprised of RPMI media supplemented with 20% fetal calf serum, 1% penicillin/streptomyocin and 2% L-glutamine (Sigma Aldrich, San Jose, Calif.).\nPBM cell infections: Testing was performed in duplicate with at least 3 independent assays. Cells were incubated in RPMI medium (HyClone, Logan, Utah) containing HR-IL2 (26.5 units/ml) and 20% fetal calf serum. Infections were performed by adding HIV-1LA1 followed by a further incubation at 37° C., 5% CO2, 1 hr prior to addition of drugs. Assays were performed in 24 well plates (BD Biosciences, Franklin Lakes, N.J.). One ml of supernatant was collected after 5 days in culture and then centrifuged at 12,000 rpm for 2 hr at 4° C. in a Jouan Br43i (Thermo Electron Corp., Marietta, Ohio). The product of the RT assay was quantified using a Packard harvester and direct beta counter and the data were analyzed as previously described (Schinazi et al, 1990)."}, "[6]": {"test_system": "PBM cells", "assay": "cells", "conditions": "Homo sapiens, PBMC, read-out: IC50 in PBM cells *Propidium Iodide assay"}, "[7]": {"test_system": "HIV-1 containing L74V", "assay": "microbe, parasite or virus in culture", "format": "cell-based", "conditions": "Human immunodeficiency virus 1, Lymphocyte"}, "[8]": {"test_system": "HIV-1BaL", "assay": "microbe, parasite or virus in culture", "conditions": "Human immunodeficiency virus 1, Macrophage, in Homo sapiens", "procedure": "Macrophages were isolated as follows: Monocytes were isolated from buffy coats of HIV-1 negative, HBV/HCV-negative donors with density gradient centrifugation coupled with enrichment for CD14+ monocytes with Rosette Sep antibody cocktail (Stem Cell Technologies, Vancouver, British Columbia). Cells were seeded at a concentration of 1.0×10^6 cells/well for 1 hr at 37° C. and 5% CO2 to confer plastic adherence prior to repeated washes with 1×PBS. Macrophages were maintained in medium containing 100 U/ml macrophage colony-stimulating factor (m-CSF, R&D Systems, Minneapolis, Minn.), supplemented with 20% fetal calf serum (Atlanta Biologicals, Lawrenceville, Ga.) and 1% penicillin/streptomyocin (Invitrogen, Carlsbad, Calif.) for 7 days (37° C., 5% CO2) prior to testing.\nMacrophage infections: Macrophages were cultured as described above for 7 days. […] 4 hrs after infection, virus was removed and drug-containing medium was returned to the cultures. Supernatants were collected on day 7 post-infection and HIV-1 p24 was quantified via ELISA (Zeptometrix Corporation, Buffalo, N.Y.). EC50 analysis was performed using CalcuSyn software (BioSoft Corporation, Cambridge, UK)."}, "[9]": {"test_system": "wild-type HIV-1xxLAI", "assay": "Antiviral potency in primary human lymphocytes, wild type", "format": "cell-based", "conditions": "Human immunodeficiency virus 1, Lymphocyte; xxLAI; primary human lymphocytes; read-out: EC90"}, "[10]": {"test_system": "HIV-1 containing 4xAZT (D67N/K70R/T215Y/K219Q)", "assay": "microbe, parasite or virus in culture", "format": "cell-based", "conditions": "Human immunodeficiency virus 1, Lymphocyte"}, "[11]": {"test_system": "HIV-2", "assay": "microbe, parasite or virus in culture", "conditions": "Human immunodeficiency virus 2, PBMC"}, "[12]": {"test_system": "HIV-1 containing A62V/V75I/F77L/F116Y/Q151M", "assay": "microbe, parasite or virus in culture", "format": "cell-based", "conditions": "Human immunodeficiency virus 1, Lymphocyte"}, "[13]": {"test_system": "acute infection in rhesus macaque macrophages", "assay": "cells", "conditions": "Macaca mulatta, Macrophage", "excerpt": "(§1) The data (Shown in Table 5 below) are mean and standard deviations from at least three independent experiments."}, "[14]": {"test_system": "acute infection in rhesus macaque lymphocytes", "assay": "cells", "conditions": "Macaca mulatta, Lymphocyte", "excerpt": "as §1"}, "[15]": {"test_system": "Mφ", "assay": "cells", "conditions": "Homo sapiens, read-out: IC50 in Mφ *MTT Assay"}}, "data": [{"compound": "Cc1cn([C@H]2C[C@H](N=[N+]=[N-])[C@@H](CO)O2)c(=O)[nH]c1=O", "note": "[AZT, 3′-azido-3′-deoxythymidine]", "values": [{"measurement": "CC50", "setting": "[1]", "value": "> 100000", "unit": "nM"}, {"measurement": "EC50", "setting": "[2]", "value": "40 ± 20", "unit": "nM"}, {"measurement": "EC90", "setting": "[2]", "value": "300 ± 100", "unit": "nM"}, {"measurement": "IC50", "setting": "[3]", "value": "> 100000", "unit": "nM"}, {"measurement": "EC50", "setting": "[4]", "value": "10 ± 20", "unit": "nM"}, {"measurement": "EC90", "setting": "[4]", "value": "20 ± 10", "unit": "nM"}, {"measurement": "EC50", "setting": "[5]; read-out: Anti-HIV-1 EC50 in acutely infected PBM cells", "value": "20 ± 8", "unit": "nM"}, {"measurement": "EC90", "setting": "[5]; read-out: Anti-HIV-1 EC90 in acutely infected PBM cells", "value": "130 ± 30", "unit": "nM"}, {"measurement": "IC50", "setting": "[6]", "value": "> 50000", "unit": "nM"}, {"measurement": "EC50", "setting": "[7]", "value": "20 ± 20", "unit": "nM"}, {"measurement": "EC90", "setting": "[7]", "value": "200 ± 100", "unit": "nM"}, {"measurement": "EC50", "setting": "[8]; read-out: Anti-HIV-1 EC50 in acutely infected MΦ", "value": "10 ± 20", "unit": "nM"}, {"measurement": "EC90", "setting": "[8]; read-out: Anti-HIV-1 EC90 in acutely infected MΦ", "value": "70 ± 120", "unit": "nM"}, {"measurement": "EC90", "setting": "[9]", "value": "100 ± 80", "unit": "nM"}, {"measurement": "EC50", "setting": "[10]", "value": "100 ± 100", "unit": "nM"}, {"measurement": "EC90", "setting": "[10]", "value": "53300 ± 66100", "unit": "nM"}, {"measurement": "EC50", "setting": "[11]; read-out: Anti-HIV-2 EC50 in acutely infected PBM cells", "value": "1 ± 0.8", "unit": "nM"}, {"measurement": "EC90", "setting": "[11]; read-out: Anti-HIV-2 EC90 in acutely infected PBM cells", "value": "10 ± 10", "unit": "nM"}, {"measurement": "EC50", "setting": "[12]", "value": "4600 ± 7700", "unit": "nM"}, {"measurement": "EC90", "setting": "[12]", "value": "41200 ± 50200", "unit": "nM"}, {"measurement": "EC50", "setting": "[13]; read-out: Acute infection in rhesus macaque macrophages EC50", "value": "80 ± 100", "unit": "nM"}, {"measurement": "EC90", "setting": "[13]; read-out: Acute infection in rhesus macaque macrophages EC90", "value": "900 ± 700", "unit": "nM"}, {"measurement": "EC50", "setting": "[14]; read-out: Acute infection in rhesus macaque lymphocytes EC50", "value": "2 ± 1", "unit": "nM"}, {"measurement": "EC90", "setting": "[14]; read-out: Acute infection in rhesus macaque lymphocytes EC90", "value": "30 ± 20", "unit": "nM"}, {"measurement": "IC50", "setting": "[15]", "value": "> 100000", "unit": "nM"}]}]}
